Values of other authors, collected in patent publication US9044508B2, “Concentrated aqueous azalide formulations” (INSITE VISION CORPORATION, priority 2013, dated 2015).

Settings: aqueous formulation

CC[C@H]1OC(=O)[C@H](C)[C@@H](O[C@H]2C[C@@](C)(OC)[C@@H](O)[C@H](C)O2)[C@H](C)[C@@H](O[C@@H]2O[C@H](C)C[C@H](N(C)C)[C@H]2O)[C@](C)(O)C[C@@H](C)CN(C)[C@H](C)[C@@H](O)[C@]1(C)O [azithromycin, N-methyl-1′-aza-10-deoxo-10-dihydroerythromycin]
pH of maximum stability: about 6.3
